Experimental data: the supplement of paper PMC4977894
± gives the standard deviation of the averaged measurements.

Tests used:
[1] = system: Homo sapiens (human subject panel, olfactory perception); test: perceived odor intensity rating (rating 0-100); higher = stronger perceived smell
Method in brief: (§1)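 Across ten visits of 100 stimuli, 55 healthy human subjects aged 18–50 sniffed 1 mL of each molecule in paraffin oil in randomized order, at both high and low concentrations. The six lowest performers were excluded. Whenever a subject reported smelling a stimulus, they rated it on a computerized slider that started at 50 and had to be moved, and positions were converted to a 0–100 scale. Each familiarity, intensity and pleasantness figure is a mean across subjects.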

[2] = system: Homo sapiens (human subject panel, olfactory perception); test: perceived odor familiarity rating (rating 0-100); higher = more familiar
Method in brief: as §1

[3] = system: Homo sapiens (human subject panel, olfactory perception); test: perceived odor pleasantness rating (rating 0-100); higher = more pleasant
Method in brief: as §1

[4] = odor dilution in paraffin oil: 1/1,000
[5] = odor dilution in paraffin oil: 1/100,000
[6] = odor dilution in paraffin oil: 1/10
[7] = odor dilution in paraffin oil: 1/10,000,000

## CCCCCCCCO [octanol]
[1]; [4]
  perceived odor intensity rating: 65.6 ± 26
[1]; [5]
  perceived odor intensity rating: 25 ± 27
[2]; [4]
  perceived odor familiarity rating: 51.7 ± 33
[2]; [5]
  perceived odor familiarity rating: 38.3 ± 26
[3]; [4]
  perceived odor pleasantness rating: 49.9 ± 28
[3]; [5]
  perceived odor pleasantness rating: 46.2 ± 24

## COc1ccc(C=O)cc1 [p-Anisaldehyde]
[1]; [4]
  perceived odor intensity rating: 71.2 ± 22
[1]; [5]
  perceived odor intensity rating: 45.9 ± 31
[2]; [4]
  perceived odor familiarity rating: 54.5 ± 30
[2]; [5]
  perceived odor familiarity rating: 49.2 ± 32
[3]; [4]
  perceived odor pleasantness rating: 60 ± 25
[3]; [5]
  perceived odor pleasantness rating: 69 ± 21

## CC(=O)Oc1ccc(C)cc1 [p-Tolyl acetate]
[1]; [4]
  perceived odor intensity rating: 72.6 ± 19
[1]; [5]
  perceived odor intensity rating: 60.9 ± 28
[2]; [4]
  perceived odor familiarity rating: 59.6 ± 28
[2]; [5]
  perceived odor familiarity rating: 46.8 ± 31
[3]; [4]
  perceived odor pleasantness rating: 47 ± 26
[3]; [5]
  perceived odor pleasantness rating: 29 ± 25

## Cc1ccc(O)cc1 [p-cresol]
[1]; [4]
  perceived odor intensity rating: 79 ± 20
[1]; [5]
  perceived odor intensity rating: 68 ± 30
[2]; [4]
  perceived odor familiarity rating: 55 ± 33
[2]; [5]
  perceived odor familiarity rating: 54.1 ± 31
[3]; [4]
  perceived odor pleasantness rating: 32.3 ± 29
[3]; [5]
  perceived odor pleasantness rating: 31.6 ± 26

## Cc1ccc(C(C)C)cc1 [para-cymene]
[1]; [6]
  perceived odor intensity rating: 83.7 ± 15
[1]; [4]
  perceived odor intensity rating: 66.4 ± 28
[2]; [6]
  perceived odor familiarity rating: 54.7 ± 32
[2]; [4]
  perceived odor familiarity rating: 55.8 ± 32
[3]; [6]
  perceived odor pleasantness rating: 37 ± 28
[3]; [4]
  perceived odor pleasantness rating: 47.4 ± 26

## CCCCCO [pentanol]
[1]; [4]
  perceived odor intensity rating: 68.4 ± 28
[1]; [5]
  perceived odor intensity rating: 31.2 ± 32
[2]; [4]
  perceived odor familiarity rating: 46 ± 30
[2]; [5]
  perceived odor familiarity rating: 36.6 ± 28
[3]; [4]
  perceived odor pleasantness rating: 23.9 ± 23
[3]; [5]
  perceived odor pleasantness rating: 41.9 ± 26

## CCCCCOC(C)=O [pentyl acetate]
[1]; [4]
  perceived odor intensity rating: 64.8 ± 30
[1]; [5]
  perceived odor intensity rating: 42.6 ± 28
[2]; [4]
  perceived odor familiarity rating: 58.2 ± 33
[2]; [5]
  perceived odor familiarity rating: 45.2 ± 28
[3]; [4]
  perceived odor pleasantness rating: 57.5 ± 32
[3]; [5]
  perceived odor pleasantness rating: 57.6 ± 23

## O=Cc1ccc2c(c1)OCO2 [piperonal]
[1]; [6]
  perceived odor intensity rating: 69.3 ± 22
[1]; [4]
  perceived odor intensity rating: 42.5 ± 29
[2]; [6]
  perceived odor familiarity rating: 64.5 ± 27
[2]; [4]
  perceived odor familiarity rating: 54.6 ± 30
[3]; [6]
  perceived odor pleasantness rating: 70.9 ± 23
[3]; [4]
  perceived odor pleasantness rating: 72 ± 20

## CCCO [propanol]
[1]; [4]
  perceived odor intensity rating: 28.7 ± 28
[1]; [5]
  perceived odor intensity rating: 26.8 ± 28
[2]; [4]
  perceived odor familiarity rating: 30.3 ± 21
[2]; [5]
  perceived odor familiarity rating: 48.1 ± 32
[3]; [4]
  perceived odor pleasantness rating: 49.7 ± 20
[3]; [5]
  perceived odor pleasantness rating: 50.1 ± 21

## CCC(=O)O [propionic acid (replicate)]
[1]; [5]
  perceived odor intensity rating: 38.6 ± 32
[1]; [7]
  perceived odor intensity rating: 7.72 ± 8.4
[2]; [5]
  perceived odor familiarity rating: 37.3 ± 30
[2]; [7]
  perceived odor familiarity rating: 44.1 ± 30
[3]; [5]
  perceived odor pleasantness rating: 38.7 ± 20
[3]; [7]
  perceived odor pleasantness rating: 36.7 ± 25

## CCC(=O)O [propionic acid]
[1]; [5]
  perceived odor intensity rating: 34.4 ± 33
[1]; [7]
  perceived odor intensity rating: 20.5 ± 27
[2]; [5]
  perceived odor familiarity rating: 35.3 ± 31
[2]; [7]
  perceived odor familiarity rating: 36.8 ± 25
[3]; [5]
  perceived odor pleasantness rating: 39.5 ± 25
[3]; [7]
  perceived odor pleasantness rating: 45.2 ± 24

## CCCOC(C)=O [propyl acetate]
[1]; [4]
  perceived odor intensity rating: 43.8 ± 36
[1]; [5]
  perceived odor intensity rating: 24.5 ± 26
[2]; [4]
  perceived odor familiarity rating: 55.1 ± 30
[2]; [5]
  perceived odor familiarity rating: 41.6 ± 28
[3]; [4]
  perceived odor pleasantness rating: 43.5 ± 24
[3]; [5]
  perceived odor pleasantness rating: 49 ± 20

## CCCOC(=O)CCC [propyl butyrate]
[1]; [4]
  perceived odor intensity rating: 64.7 ± 27
[1]; [5]
  perceived odor intensity rating: 36.7 ± 31
[2]; [4]
  perceived odor familiarity rating: 52.5 ± 27
[2]; [5]
  perceived odor familiarity rating: 39.4 ± 27
[3]; [4]
  perceived odor pleasantness rating: 42.5 ± 27
[3]; [5]
  perceived odor pleasantness rating: 33.6 ± 25

## CCCSCCC [propyl sulfide]
[1]; [5]
  perceived odor intensity rating: 28.1 ± 31
[1]; [7]
  perceived odor intensity rating: 11.6 ± 12
[2]; [5]
  perceived odor familiarity rating: 29.4 ± 28
[2]; [7]
  perceived odor familiarity rating: 34.7 ± 38
[3]; [5]
  perceived odor pleasantness rating: 44.5 ± 28
[3]; [7]
  perceived odor pleasantness rating: 40.7 ± 25

## c1cnccn1 [pyrazine]
[1]; [4]
  perceived odor intensity rating: 18.9 ± 22
[1]; [5]
  perceived odor intensity rating: 38.5 ± 32
[2]; [4]
  perceived odor familiarity rating: 35.4 ± 27
[2]; [5]
  perceived odor familiarity rating: 36.8 ± 28
[3]; [4]
  perceived odor pleasantness rating: 44.8 ± 21
[3]; [5]
  perceived odor pleasantness rating: 39.6 ± 24

## c1ccncc1 [pyridine]
[1]; [5]
  perceived odor intensity rating: 21.5 ± 23
[1]; [7]
  perceived odor intensity rating: 13 ± 21
[2]; [5]
  perceived odor familiarity rating: 33.7 ± 29
[2]; [7]
  perceived odor familiarity rating: 28 ± 28
[3]; [5]
  perceived odor pleasantness rating: 46.8 ± 24
[3]; [7]
  perceived odor pleasantness rating: 54.2 ± 25

## O=Cc1ccccc1O [salicylaldehyde]
[1]; [4]
  perceived odor intensity rating: 77.9 ± 19
[1]; [5]
  perceived odor intensity rating: 53.5 ± 28
[2]; [4]
  perceived odor familiarity rating: 51.7 ± 31
[2]; [5]
  perceived odor familiarity rating: 39.9 ± 28
[3]; [4]
  perceived odor pleasantness rating: 30.6 ± 26
[3]; [5]
  perceived odor pleasantness rating: 39.5 ± 23

## CC(C)(C)O [tert-butanol]
[1]; [6]
  perceived odor intensity rating: 56 ± 32
[1]; [4]
  perceived odor intensity rating: 24.8 ± 30
[2]; [6]
  perceived odor familiarity rating: 47.5 ± 32
[2]; [4]
  perceived odor familiarity rating: 34.7 ± 29
[3]; [6]
  perceived odor pleasantness rating: 44.9 ± 24
[3]; [4]
  perceived odor pleasantness rating: 58.8 ± 22

## Cc1ccc(C(C)C)c(O)c1 [thymol]
[1]; [4]
  perceived odor intensity rating: 71.1 ± 23
[1]; [5]
  perceived odor intensity rating: 39.2 ± 30
[2]; [4]
  perceived odor familiarity rating: 55.8 ± 32
[2]; [5]
  perceived odor familiarity rating: 49.7 ± 29
[3]; [4]
  perceived odor pleasantness rating: 41.8 ± 27
[3]; [5]
  perceived odor pleasantness rating: 48.5 ± 24

## C/C=C/C=C/CO [trans,trans-2,4-Hexadien-1-ol]
[1]; [4]
  perceived odor intensity rating: 45.5 ± 30
[1]; [5]
  perceived odor intensity rating: 14.4 ± 18
[2]; [4]
  perceived odor familiarity rating: 45.1 ± 32
[2]; [5]
  perceived odor familiarity rating: 36.4 ± 30
[3]; [4]
  perceived odor pleasantness rating: 48 ± 23
[3]; [5]
  perceived odor pleasantness rating: 49.6 ± 23

## C/C=C/C=C/COC(C)=O [trans,trans-2,4-Hexadienyl acetate (replicate)]
[1]; [6]
  perceived odor intensity rating: 19.1 ± 20
[1]; [4]
  perceived odor intensity rating: 23.5 ± 26
[2]; [6]
  perceived odor familiarity rating: 30.4 ± 25
[2]; [4]
  perceived odor familiarity rating: 30.6 ± 27
[3]; [6]
  perceived odor pleasantness rating: 47.6 ± 22
[3]; [4]
  perceived odor pleasantness rating: 49.5 ± 25

## C/C=C/C=C/COC(C)=O [trans,trans-2,4-Hexadienyl acetate]
[1]; [6]
  perceived odor intensity rating: 13.9 ± 24
[1]; [4]
  perceived odor intensity rating: 22 ± 23
[2]; [6]
  perceived odor familiarity rating: 24.8 ± 27
[2]; [4]
  perceived odor familiarity rating: 35.5 ± 27
[3]; [6]
  perceived odor pleasantness rating: 39.4 ± 25
[3]; [4]
  perceived odor pleasantness rating: 51.3 ± 24

## CCC/C=C/COC(C)=O [trans-2-Hexenyl acetate]
[1]; [4]
  perceived odor intensity rating: 64.3 ± 27
[1]; [5]
  perceived odor intensity rating: 38.3 ± 30
[2]; [4]
  perceived odor familiarity rating: 52.4 ± 30
[2]; [5]
  perceived odor familiarity rating: 38.8 ± 26
[3]; [4]
  perceived odor pleasantness rating: 41.2 ± 30
[3]; [5]
  perceived odor pleasantness rating: 49 ± 24

## CCCCC/C=C/CO [trans-2-Octen-1-ol]
[1]; [4]
  perceived odor intensity rating: 69.6 ± 26
[1]; [5]
  perceived odor intensity rating: 27.6 ± 28
[2]; [4]
  perceived odor familiarity rating: 46.4 ± 32
[2]; [5]
  perceived odor familiarity rating: 31 ± 31
[3]; [4]
  perceived odor pleasantness rating: 36.5 ± 28
[3]; [5]
  perceived odor pleasantness rating: 50.8 ± 22

## C/C=C/c1ccc(OC)cc1 [trans-Anethole]
[1]; [4]
  perceived odor intensity rating: 64.3 ± 28
[1]; [5]
  perceived odor intensity rating: 30.8 ± 30
[2]; [4]
  perceived odor familiarity rating: 74 ± 26
[2]; [5]
  perceived odor familiarity rating: 40 ± 32
[3]; [4]
  perceived odor pleasantness rating: 62.1 ± 26
[3]; [5]
  perceived odor pleasantness rating: 51.3 ± 23

## O=C(O)/C=C/c1ccccc1 [trans-Cinnamic acid]
[1]; [6]
  perceived odor intensity rating: 72.3 ± 23
[1]; [4]
  perceived odor intensity rating: 59.5 ± 30
[2]; [6]
  perceived odor familiarity rating: 51.5 ± 31
[2]; [4]
  perceived odor familiarity rating: 46.5 ± 32
[3]; [6]
  perceived odor pleasantness rating: 52.7 ± 30
[3]; [4]
  perceived odor pleasantness rating: 28.4 ± 28

## CCC(=O)OC/C=C/c1ccccc1 [trans-Cinnamyl propionate]
[1]; [4]
  perceived odor intensity rating: 46.3 ± 30
[1]; [5]
  perceived odor intensity rating: 23.7 ± 29
[2]; [4]
  perceived odor familiarity rating: 45.5 ± 29
[2]; [5]
  perceived odor familiarity rating: 36.7 ± 28
[3]; [4]
  perceived odor pleasantness rating: 50.8 ± 23
[3]; [5]
  perceived odor pleasantness rating: 46.9 ± 24

## CCCCCCCCCCC=O [undecanal]
[1]; [4]
  perceived odor intensity rating: 68.2 ± 28
[1]; [5]
  perceived odor intensity rating: 20.4 ± 26
[2]; [4]
  perceived odor familiarity rating: 47.9 ± 32
[2]; [5]
  perceived odor familiarity rating: 28.2 ± 25
[3]; [4]
  perceived odor pleasantness rating: 36.2 ± 26
[3]; [5]
  perceived odor pleasantness rating: 50 ± 21

## CCCCCCCCCCC [undecane]
[1]; [6]
  perceived odor intensity rating: 56.4 ± 31
[1]; [4]
  perceived odor intensity rating: 21 ± 26
[2]; [6]
  perceived odor familiarity rating: 41.7 ± 32
[2]; [4]
  perceived odor familiarity rating: 35 ± 29
[3]; [6]
  perceived odor pleasantness rating: 32.3 ± 21
[3]; [4]
  perceived odor pleasantness rating: 53.3 ± 23

## CCCCC=O [valeraldehyde]
[1]; [5]
  perceived odor intensity rating: 41.3 ± 30
[1]; [7]
  perceived odor intensity rating: 18.8 ± 22
[2]; [5]
  perceived odor familiarity rating: 43.7 ± 26
[2]; [7]
  perceived odor familiarity rating: 38.9 ± 28
[3]; [5]
  perceived odor pleasantness rating: 43 ± 25
[3]; [7]
  perceived odor pleasantness rating: 49.8 ± 26

## CCCCC(=O)O [valeric acid]
[1]; [5]
  perceived odor intensity rating: 47.2 ± 29
[1]; [7]
  perceived odor intensity rating: 34.9 ± 32
[2]; [5]
  perceived odor familiarity rating: 31.6 ± 29
[2]; [7]
  perceived odor familiarity rating: 45.2 ± 34
[3]; [5]
  perceived odor pleasantness rating: 24.7 ± 22
[3]; [7]
  perceived odor pleasantness rating: 37.5 ± 23

## COc1cc(C=O)ccc1O [vanillin]
[1]; [6]
  perceived odor intensity rating: 72.1 ± 23
[1]; [4]
  perceived odor intensity rating: 74.4 ± 22
[2]; [6]
  perceived odor familiarity rating: 82.6 ± 18
[2]; [4]
  perceived odor familiarity rating: 80.7 ± 21
[3]; [6]
  perceived odor pleasantness rating: 86.3 ± 15
[3]; [4]
  perceived odor pleasantness rating: 84 ± 20
